According to PMC8778022, “Synthesis and Biological Activity of 3-(Heteroaryl)quinolin-2(1H)-ones Bis-Heterocycles as Potential Inhibitors of the Protein Folding Machinery Hsp90” (Molecules, 2022):
“Also recorded” adds a separate entry of the source.

Key:
Type in all cases: cell-based, human
[1] = tested on: MDA-MB-231 cells; assay: MTS cell viability assay, MDA-MB-231 cells, 72 h; details: % of viable cells compared to untreated cells 100%; for viability at 10 µM / viability at 25 µM / viability at 15 µM: Homo sapiens, MDA-MB-231, 72 h
Method: (§1) Upon completion of their syntheses, the in vitro activity of quinolone derivatives 3a–f, 4a–h, and 5a,b was evaluated by their growth-inhibitory potency in three cancer cell lines. At first, the viability of the synthesized compounds was examined with the MDA-MB-231 […] breast cancer cell line at concentrations of 10 µM, 15 µM, and 25 µM. Prostate cancer PC-3 cells and human fetal lung fibroblast MRC-5 cell lines were also subjected to this series of compounds at a unique concentration of 15 µM.
(§2) MDA-MB-231 cells were grown in L15 supplemented with 15% serum, 2 mM glutamine, and 22 mM sodium bicarbonate in the presence of Penicillin/Streptomycin antibiotic mixture. PC-3 cells were cultured in RPMI 1640 supplemented with 10% serum and 2 mM glutamine in the presence of Penicillin/Streptomycin antibiotic mixture. MRC-5 cells were cultured in EMEM supplemented with 10% serum and 2 mM glutamine in the presence of Penicillin/Streptomycin antibiotic mixture (Reagents were purchased from Sigma Aldrich, Saint-Quentin-Fallavier, France).
(§3) Cells were treated for 72 h with 10, 15, and 25 µM of the selected substances. Control cells were treated with the equivalent in DMSO.
(§4) Cell survival was assessed using the CellTiter Aqueous One Proliferation assay (Promega, Charbonnières-les-Bains, France) whereby 2500 or 5000 cells per well were seeded in 96-well plates in 100 µL. At the end of the treatment, 20 µL of reagent was added, and absorbance readings were taken at 492 nm on a 96-well plate reader after 3 h of contact (on average).

[2] = tested on: PC-3 cells; assay: MTS cell viability / growth inhibition assay, PC-3 cells, 72 h; details: for GI50: PC-3, concentration needed to reduce cell growth by 50%, 72 h treatment, estimated, read-out: GI50 anti-proliferative effect PC-3; for viability at 15 µM: PC-3, 72 h; for viability at 15 µM / Cell viability [%] PC-3 (15 µM): 72 h, MTS, % of viable cells compared to untreated cells 100%
Method: as §1
Then, the growth inhibitory activities against PC-3 prostate cancer cell line were measured for the selected 3-heteroaryl-quinolin-2(1H)-one derivatives 3a–e.
as §2, §3, §4

[3] = tested on: Hsp90α/β; assay: Western blot of Hsp90 level in PC-3 cells; details: 15 µM, 72 h, without triggering the HSR
Method: (§5) For protein expression analysis, cells were seeded at a rate of 0.75 × 10^6 cells on a 25 cm^2 surface. At the end of the treatment the cells were washed and lysed with RIPA buffer (Sigma Aldrich, Saint-Quentin-Fallavier, France city, country) to which protease inhibitors (Sigma Aldrich, Saint-Quentin-Fallavier, France SIGMA) were added. After 30 min of lysis on ice, the samples were centrifuged (3500 rpm, 10 min) and stored at −20 °C. Total protein concentration was obtained using the Bio-rad Protein Assay reagent (Bio-Rad Laboratories, Marnes-la-Coquette, France city, country). […] Immunorevelation was performed as follows: 1 h saturation of the membrane with TBS-Tween (0.1%)–5% skim milk followed by overnight incubation in primary antibody solution (antibodies were from Santa Cruz Biotechnologies, Clinisciences, Nanterre, France or from Sigma Aldrich, Saint-Quentin-Fallavier, France)(See Table 3). After 1 h of washing in 0.1% TBS-Tween, the membranes were contacted with the second horseradish peroxidase-coupled antibody. Detection of the chemiluminescence signal (SuperSignal Pierce reagent, Fisher Scientific, Illkirch, France) was performed using the ChemiBis gel Imager (DNR Bio-Imaging Systems, Israel).
(§6) Figure 2 Effects of quinolone analogues 3a–e, 4e and 5b on HSP90 machinery protein levels and on CDK-4 stability. PC-3 cells were grown and exposed to Hsp90 inhibitors (3a–e, 4e and 5b, 15 µM) as described in Experimental section for 72 h and cell lysates were analyzed by Western blotting with regard to the levels of CDK-4, Hsp90α/β and Hsp70. NT corresponds to untreated cells; D, DMSO-treated cells were used as controls, GADPH level is used for control in protein loading on gels.

[4] = tested on: Hsp70; assay: Western blot of Hsp70 level in PC-3 cells; details: 15 µM, 72 h, without triggering the HSR
Method: as §5, §6

[5] = tested on: CDK-4; assay: Western blot of Hsp90 client protein CDK-4 in PC-3 cells; details: for CDK-4 client protein level (Western blot): PC-3 cells, 15 µM, 72 h; for CDK-4 client protein level: as printed in abstract and conclusions
Method: as §5, §6

[6] = MTS cell viability assay, MRC-5 cells, 72 h; details: human, MRC-5 fetal lung fibroblast cells, % of viable cells compared to untreated cells 100%
Method: as §1, §2, §3, §4

## O=c1c(-c2nc3ccccc3n2Cc2ccccc2)cc2ccccc2n1Cc1ccccc1 [3a]
[1]; 10 µM
  viability at 10 µM: < 47%
[1]; 25 µM
  viability at 25 µM: ~30%
[2]; Homo sapiens
  GI50: 48 µM

## COc1ccc(Cn2c(-c3cc4ccccc4n(C)c3=O)nc3cc(C)c(C)cc32)cc1 [3b]
[1]; 25 µM
  viability at 25 µM: ~30%
[3]
  Hsp90 level (heat shock response): stabilize
[4]
  Hsp70 level (heat shock response): stabilize
[5]
  CDK-4 client protein level (Western blot): more decreased
  CDK-4 client protein level: significant decrease
[2]; Homo sapiens
  viability at 15 µM: ≥ 56%
  GI50: 28 µM
[2]; Homo sapiens, as printed in abstract and b26, refers to Table 2 (PC-3, 72 h), read-out: IC50 anti-proliferative activity
  IC50: 28 µM

## Cn1c(=O)c(-c2nc3ccccc3s2)cc2ccccc21 [3c]
[2]; Homo sapiens
  GI50: 37 µM

## CSc1ncnc2c1nc(-c1cc3ccccc3n(C)c1=O)n2Cc1ccccc1 [3e, 3-(6-Methylthiopurine)-2-quinolone]
[2]; Homo sapiens
  viability at 15 µM: ≥ 56%
  GI50: 38 µM

## COc1cc(-c2ncnc3c2nc(-c2cc4ccccc4n(C)c2=O)n3Cc2ccccc2)cc(OC)c1OC [4d, 3-[9-benzyl-6-(3,4,5-trimethoxyphenyl)-9H-purin-8-yl]-1-methylquinolin-2(1H)-one]
[6]
  viability at 72 h, 15 µM: 71 to 79%

## Cc1cc(C)cc(-c2ncnc3c2nc(-c2cc4ccccc4n(C)c2=O)n3Cc2ccccc2)c1 [4e, 3-[9-benzyl-6-(3,5-dimethylphenyl)-9H-purin-8-yl]-1-methylquinolin-2(1H)-one]
[6]
  viability at 72 h, 15 µM: 71 to 79%
[3]
  Hsp90 level (heat shock response): stabilize
[4]
  Hsp70 level (heat shock response): stabilize
[5]
  CDK-4 client protein level (Western blot): degraded; also recorded: more decreased
  CDK-4 client protein level: significant decrease
[2]; Homo sapiens
  viability at 15 µM: ≥ 56%

## Cn1c(=O)c(-c2nc3c(-c4ccc(F)cc4)ncnc3n2Cc2ccccc2)cc2ccccc21 [4h, 3-[9-benzyl-6-(4-fluorophenyl)-9H-purin-8-yl]-1-methylquinolin-2(1H)-one]
[1]; 25 µM
  viability at 25 µM: ~30%

## COc1ccc(Nc2ncnc3c2nc(-c2cc4ccccc4n(C)c2=O)n3Cc2ccccc2)cc1 [5a, 3-{9-benzyl-6-[(4-methoxyphenyl)amino]-9H-purin-8-yl}-1-methylquinolin-2(1H)-one]
[1]; 10 µM
  viability at 10 µM: < 47%

## COc1cc(Nc2ncnc3c2nc(-c2cc4ccccc4n(C)c2=O)n3Cc2ccccc2)cc(OC)c1OC [5b, 3-{9-benzyl-6-[(3,4,5-trimethoxyphenyl)amino]-9H-purin-8-yl}-1-methylquinolin-2(1H)-one]
[3]
  Hsp90 level (heat shock response): stabilize
[4]
  Hsp70 level (heat shock response): stabilize
[5]
  CDK-4 client protein level (Western blot): degraded

## O=c1c(-c2nc3ccccc3n2Cc2ccccc2)cc2ccccc2n1Cc1ccccc1 [C00001]
[1]; 25 µM
  Cell viability [%] MDA-MB-231: 36%
[1]
  viability at 15 µM: 47%
[6]
  viability at 72 h, 15 µM: 80%
[2]; Homo sapiens
  viability at 15 µM: 70%

## COc1ccc(Cn2c(-c3cc4ccccc4n(C)c3=O)nc3cc(C)c(C)cc32)cc1 [C00002]
[1]; 25 µM
  Cell viability [%] MDA-MB-231: 23%
[1]; 10 µM
  viability at 10 µM: 60%
[1]
  viability at 15 µM: 60%
[6]
  viability at 72 h, 15 µM: 95%
[2]
  Cell viability [%] PC-3 (15 µM): 61%

## Cn1c(=O)c(-c2nc3ccccc3s2)cc2ccccc21 [C00003]
[1]; 10 µM
  viability at 10 µM: 55%
[1]
  viability at 15 µM: 72%
[1]; 25 µM
  viability at 25 µM: 65%
[6]
  viability at 72 h, 15 µM: 88%
[2]; Homo sapiens
  viability at 15 µM: 61%

## Cn1c(=O)c(-c2nc3ccccc3o2)cc2ccccc21 [C00004]
[1]; 10 µM
  viability at 10 µM: 98%
[1]
  viability at 15 µM: 98%
[1]; 25 µM
  viability at 25 µM: 98%

## CSc1ncnc2c1nc(-c1cc3ccccc3n(C)c1=O)n2Cc1ccccc1 [C00005]
[1]; 10 µM
  viability at 10 µM: 73%
[1]
  viability at 15 µM: 70%
[1]; 25 µM
  viability at 25 µM: 50%
[6]
  viability at 72 h, 15 µM: 88%
[2]
  Cell viability [%] PC-3 (15 µM): 61%

## Cn1c(=O)c(-c2cc3ccccc3s2)cc2ccccc21 [C00006]
[1]; 10 µM
  viability at 10 µM: 98%

## COc1ccc(-c2ncnc3c2nc(-c2cc4ccccc4n(C)c2=O)n3Cc2ccccc2)cc1 [C00007]
[1]; 10 µM
  viability at 10 µM: 66%
[1]
  viability at 15 µM: 81%
[1]; 25 µM
  viability at 25 µM: 87%
[6]
  viability at 72 h, 15 µM: 94%
[2]; Homo sapiens
  viability at 15 µM: 73%

## COc1cccc(-c2ncnc3c2nc(-c2cc4ccccc4n(C)c2=O)n3Cc2ccccc2)c1 [C00008]
[1]; 10 µM
  viability at 10 µM: 70%
[1]
  viability at 15 µM: 69%
[1]; 25 µM
  viability at 25 µM: 61%
[6]
  viability at 72 h, 15 µM: 92%
[2]; Homo sapiens
  viability at 15 µM: 106%

## Cn1c(=O)c(-c2nc3c(-c4ccccc4)ncnc3n2Cc2ccccc2)cc2ccccc21 [C00009]
[1]; 10 µM
  viability at 10 µM: 71%
[1]
  viability at 15 µM: 62%
[1]; 25 µM
  viability at 25 µM: 35%
[6]
  viability at 72 h, 15 µM: 82%
[2]; Homo sapiens
  viability at 15 µM: 97%

## COc1cc(-c2ncnc3c2nc(-c2cc4ccccc4n(C)c2=O)n3Cc2ccccc2)cc(OC)c1OC [C00010]
[1]; 10 µM
  viability at 10 µM: 60%
[1]
  viability at 15 µM: 47%
[1]; 25 µM
  viability at 25 µM: 55%
[2]; Homo sapiens
  viability at 15 µM: 89%

## Cn1c(=O)c(-c2nc3c(-c4cccc5ccccc45)ncnc3n2Cc2ccccc2)cc2ccccc21 [C00012]
[1]; 10 µM
  viability at 10 µM: 73%
[1]
  viability at 15 µM: 81%
[1]; 25 µM
  viability at 25 µM: 92%
[6]
  viability at 72 h, 15 µM: 98%
[2]; Homo sapiens
  viability at 15 µM: 88%

## Cn1c(=O)c(-c2nc3c(-c4ccc(F)cc4)ncnc3n2Cc2ccccc2)cc2ccccc21 [C00014]
[1]; 25 µM
  Cell viability [%] MDA-MB-231: 17%
[1]; 10 µM
  viability at 10 µM: 55%
[1]
  viability at 15 µM: 42%
[6]
  viability at 72 h, 15 µM: 84%
[2]; Homo sapiens
  viability at 15 µM: 97%

## COc1ccc(Nc2ncnc3c2nc(-c2cc4ccccc4n(C)c2=O)n3Cc2ccccc2)cc1 [C00015]
[1]; 10 µM
  Cell viability [%] MDA-MB-231: 62%
[1]
  viability at 15 µM: 63%
[1]; 25 µM
  viability at 25 µM: 69%
[6]
  viability at 72 h, 15 µM: 91%
[2]; Homo sapiens
  viability at 15 µM: 87%

## COc1cc(Nc2ncnc3c2nc(-c2cc4ccccc4n(C)c2=O)n3Cc2ccccc2)cc(OC)c1OC [C00016]
[1]; 10 µM
  viability at 10 µM: 44%
[1]
  viability at 15 µM: 55%
[1]; 25 µM
  viability at 25 µM: 61%
[6]
  viability at 72 h, 15 µM: 81%
[2]; Homo sapiens
  viability at 15 µM: 88%

## COc1ccc(C(=O)Nc2cc3cc(Br)ccc3n(C)c2=O)cc1 [C00017, reference compound]
[1]; 10 µM
  viability at 10 µM: 76%
